The results in this text go back to patent US20230108906A1, “SUBSTITUTED BICYCLIC AND TRICYCLIC UREAS AND AMIDES, ANALOGUES THEREOF, AND METHODS USING SAME” (Arbutus Biopharma Corporation, priority 2019, published 2023).

In one experiment the test system is HBV rcDNA in HepDE19 cells. Description: HepDE19 assay with bDNA quantitation of HBV rcDNA. It is filed as cell-based, hepatitis B virus (HBV). As to conditions: Hepatitis B virus, HepDE19, 168 h, inhibition of rcDNA formation in HepDE19 cells (HepG2 derived), Tet-free medium, 7 day incubation, Quantigene 2.0 bDNA readout, top concentration 25 μM; read-out: DE-19bDNA EC50. In outline:
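HepDE19 cells (HepG2-derived, Tet-regulated HBV) switched to Tet-free medium, then treated 7 days at 37 °C with compound, 8-point titration from 25 μM, 0.5% DMSO. rcDNA quantified by bDNA with HBV probes; EC50/EC90 via 4-parameter fit. Viability (CC50) by CellTiter-Glo ATP on 5,000 cells/well after 4 days.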
One may read the EC50 as the concentration giving half of the maximal effect. As to `CN(C(=O)Nc1ccc(F)c(C#N)c1)C1COCc2[nH]c(=O)c3cc(F)c(F)cc3c21` (racemic) [Compound 106, 3-(3-Cyano-4-fluorophenyl)-1-(8,9-difluoro-6-oxo-1,4,5,6-tetrahydro-2H-pyrano[3,4-c]isoquinolin-1-yl)-1-methylurea], the EC50 turned out to be 20 nM. For the molecule `N#Cc1cc(NC(=O)N[C@@H]2COCc3[nH]c(=O)c4cc(F)c(F)cc4c32)ccc1F` (single isomer, unassigned) [Compound 135], the half-maximal effective concentration (EC50) was determined as 50 nM. With `CN(C(=O)Nc1ccc(F)c(Cl)c1)C1COC(O)c2[nH]c(=O)c3cc(F)c(F)cc3c21` (stereo not shown) [Compound 151, 3-(3-Chloro-4-fluorophenyl)-1-(8,9-difluoro-4-hydroxy-6-oxo-1,4,5,6-tetrahydro-2H1-pyrano[3,4-c]isoquinolin-1-yl)-1-methylurea], the EC50 amounted to 20 nM. As to `CN(C(=O)Nc1ccc(F)c(Cl)c1)C1CCCc2[nH]c(=O)c3c(c21)CCOC3` (single isomer, unassigned) [Compound 60, 3-(3-Chloro-4-fluorophenyl)-1-methyl-1-(5-oxo-1,4,5,6,7,8,9,10-octahydro-2H-pyrano[3,4-c]quinolin-10-yl)urea], the EC50 was determined as 3200 nM. `CN(C(=O)Nc1ccc(F)c(Cl)c1)[C@@H]1COCc2c1c1cc(F)c(F)cc1c(=O)n2C` [Compound 243, (S)-3-(3-Chloro-4-fluorophenyl)-1-(8,9-difluoro-5-methyl-6-oxo-1,4,5,6-tetrahydro-2H-pyrano[3,4-c]isoquinolin-1-yl)-1-methylurea]: the EC50 came to 20 nM. For `CN(C(=O)Nc1ccc(F)c(Cl)c1)[C@@H]1COCc2[nH]c(=O)c3cc(F)ccc3c21` (single isomer, unassigned) [Compound 41], the concentration giving a half-maximal response (EC50) is 10 nM. With `CN(C(=O)Nc1ccc(F)c(C(F)F)c1)C1COCc2[nH]c(=O)c3cc(F)ccc3c21` (single isomer, unassigned) [Compound 123, 3-(3-(Difluoromethyl)-4-fluorophenyl)-1-(8-fluoro-6-oxo-1,4,5,6-tetrahydro-2H-pyrano[3,4-c]isoquinolin-1-yl)-1-methylurea], the EC50 stood at 560 nM. Regarding `CN(C(=O)Nc1ccc(F)c(Cl)c1)C1COCc2[nH]c(=O)c3sccc3c21` (stereo not shown) [Compound 95, 3-(3-Chloro-4-fluorophenyl)-1-methyl-1-(6-oxo-1,4,5,6-tetrahydro-2H-pyrano[3,4-b]thieno[3,2-d]pyridin-1-yl)urea], the half-maximal effective concentration (EC50) was 30 nM.

Regarding `CN(C(=O)Nc1ccc(Cl)c(C#N)c1)[C@@H]1COCc2[nH]c(=O)c3cc(F)c(F)cc3c21` [Compound 142, (S)-3-(4-Chloro-3-cyanophenyl)-1-(8,9-difluoro-6-oxo-1,4,5,6-tetrahydro-2H-pyrano[3,4-c]isoquinolin-1-yl)-1-methylurea], the EC50 was found to be 30 nM. Regarding `CCN(C(=O)Nc1ccc(F)c(C#N)c1)C1COCc2[nH]c(=O)c3ccc(F)cc3c21` (stereo not shown) [Compound 78, 3-(3-Cyano-4-fluorophenyl)-1-ethyl-1-(9-fluoro-6-oxo-1,4,5,6-tetrahydro-2H-pyrano[3,4-c]isoquinolin-1-yl)urea], the 50% effective concentration (EC50) is 40 nM. In the case of `CN(C(=O)Nc1ccc(Cl)c(F)c1)[C@@H]1COCc2[nH]c(=O)c3cc(F)c(F)cc3c21` [Compound 141, (S)-3-(4-Chloro-3-fluorophenyl)-1-(8,9-difluoro-6-oxo-1,4,5,6-tetrahydro-2H-pyrano[3,4-c]isoquinolin-1-yl)-1-methylurea], the half-maximal effective concentration (EC50) turned out to be 20 nM.

As to `CN(C(=O)Nc1ccc(F)c(C(F)F)c1)C1COCc2[nH]c(=O)c3cc(F)ccc3c21` (stereo not shown) [Compound 124, 3-(3-(Difluoromethyl)-4-fluorophenyl)-1-(8-fluoro-6-oxo-1,4,5,6-tetrahydro-2H-pyrano[3,4-c]isoquinolin-1-yl)-1-methylurea], the EC50 amounted to 10 nM. Regarding `CCN(C(=O)Nc1ccc(F)c(Cl)c1)[C@@H]1COCc2[nH]c(=O)c3cc(F)ccc3c21` (single isomer, unassigned) [Compound 87], the EC50 turned out to be 10 nM. `CC(C)CN(C(=O)Nc1ccc(F)c(Cl)c1)C1CCCc2[nH]c(=O)c3ccccc3c21` (stereo not shown) [Compound 8, 3-(3-Chloro-4-fluorophenyl)-1-isobutyl-1-(6-oxo-1,2,3,4,5,6-hexahydrophenanthridin-1-yl)urea]: the concentration giving a half-maximal response (EC50) was found to be 470 nM. For `CN(C(=O)Nc1ccc(F)c(Cl)c1)C1COCc2[nH]c(=O)c3cc(F)c(F)cc3c21` (racemic) [Compound 24, 3-(3-Chloro-4-fluorophenyl)-1-(8,9-difluoro-6-oxo-1,4,5,6-tetrahydro-2H-pyrano[3,4-c]isoquinolin-1-yl)-1-methylurea], the concentration giving a half-maximal response (EC50) stood at 10 nM.

The experiment is the same for the next values; noted with them: inhibition of rcDNA formation in HepDE19 cells (HepG2 derived), Tet-free medium, 7 day incubation, Quantigene 2.0 bDNA readout, top concentration 25 μM; read-out: DE-19bDNA EC50.
Turning to `CC(C)CN(C(=O)Nc1ccc(F)c(F)c1)C1COCc2[nH]c(=O)c3cc(F)ccc3c21` (single isomer, unassigned) [Compound 99, 3-(3,4-Difluorophenyl)-1-(8-fluoro-6-oxo-2,4,5,6-tetrahydro-1H-pyrano[3,4-c]isoquinolin-1-yl)-1-isobutylurea], the EC50 amounted to 10 nM. The same measure, in the same setting: the value for `CN1Cc2[nH]c(=O)c3cc(F)c(F)cc3c2C(N(C)C(=O)Nc2ccc(F)c(Cl)c2)C1` (single isomer, unassigned) [Compound 167, 3-(3-Chloro-4-fluorophenyl)-1-(8,9-difluoro-3-methyl-6-oxo-1,2,3,4,5,6-hexahydrobenzo[c][1,7]naphthyridin-1-yl)-1-methylurea] was 7600 nM; that for `CN(C(=O)Nc1ccc(F)c(C#N)c1)C1CSCc2[nH]c(=O)c3cc(F)c(F)cc3c21` (single isomer, unassigned) [Compound 190, 3-(3-Cyano-4-fluorophenyl)-1-(8,9-difluoro-6-oxo-1,4,5,6-tetrahydro-2H-thiopyrano[3,4-c]isoquinolin-1-yl)-1-methylurea] was 20 nM. For `CN(C(=O)Nc1cc(Cl)c(F)c(Cl)c1)C1COCc2[nH]c(=O)c3cc(F)ccc3c21` (single isomer, unassigned) [Compound 97, 3-(3,5-Dichloro-4-fluorophenyl)-1-(8-fluoro-6-oxo-1,4,5,6-tetrahydro-2H-pyrano[3,4-c]isoquinolin-1-yl)-1-methylurea], the concentration giving a half-maximal response (EC50) was 3300 nM. With `CN(C(=O)Nc1ccc(F)c(C(F)F)c1)C1COCc2nc(NCCN)c3cc(F)c(F)cc3c21` (single isomer, unassigned) [Compound 247, 1-(6-((2-Aminoethyl)amino)-8,9-difluoro-1,4-dihydro-2H-pyrano[3,4-c]isoquinolin-1-yl)-3-(3-(difluoromethyl)-4-fluorophenyl)-1-methylurea], the EC50 came out at 80 nM. Regarding `CN(C(=O)Nc1ccc(F)c(Cl)c1)C1COCc2[nH]c(=O)c3c(c21)COCC3` (single isomer, unassigned) [Compound 84, 3-(3-Chloro-4-fluorophenyl)-1-methyl-1-(5-oxo-4,5,6,7,9,10-hexahydro-1H,3H-dipyrano[3,4-b:3′,4′-d]pyridin-10-yl)urea], the concentration for a half-maximal effect (EC50) amounted to 830 nM.

With `CN(C(=O)Nc1ccc(F)c(C#N)c1)C1CSCc2[nH]c(=O)c3cc(F)ccc3c21` (single isomer, unassigned) [Compound 186, 3-(3-Cyano-4-fluorophenyl)-1-(8-fluoro-6-oxo-1,4,5,6-tetrahydro-2H-thiopyrano[3,4-c]isoquinolin-1-yl)-1-methylurea], the EC50 was 60 nM. Regarding `CNc1nc2c(c3cc(F)c(F)cc13)C(N(C)C(=O)Nc1ccc(F)c(Cl)c1)COC2` (single isomer, unassigned) [Compound 241, 3-(3-Chloro-4-fluorophenyl)-1-(8,9-difluoro-6-(methylamino)-1,4-dihydro-2H-pyrano[3,4-c]isoquinolin-1-yl)-1-methylurea], the EC50 was 2380 nM.

Regarding `CN(C(=O)Nc1ccc(F)c(C#N)c1)C1CN(CCO)Cc2[nH]c(=O)c3cc(F)c(F)cc3c21` (single isomer, unassigned) [Compound 181, 3-(3-Cyano-4-fluorophenyl)-1-(8,9-difluoro-3-(2-hydroxyethyl)-6-oxo-1,2,3,4,5,6-hexahydrobenzo[c][1,7]naphthyridin-1-yl)-1-methylurea], the EC50 is ≥ 25000 nM. Still for that read-out and setting: the value for `CC(C)CN(C(=O)Nc1ccc(F)c(C#N)c1)C1COCc2[nH]c(=O)c3cc(F)ccc3c21` (single isomer, unassigned) [Compound 115, 3-(3-Cyano-4-fluorophenyl)-1-(8-fluoro-6-oxo-1,4,5,6-tetrahydro-2H-pyrano[3,4-c]isoquinolin-1-yl)-1-isobutylurea] was 10 nM. With `CN(C(=O)Nc1ccc(F)c(Cl)c1)C1C[S+]([O-])Cc2[nH]c(=O)c3cc(F)c(F)cc3c21` (single isomer, unassigned) [Compound 207, 3-(3-Chloro-4-fluorophenyl)-1-(8,9-difluoro-3-oxido-6-oxo-1,4,5,6-tetrahydro-2H-thiopyrano[3,4-c]isoquinolin-1-yl)-1-methylurea], the concentration for a half-maximal effect (EC50) stood at 1300 nM. In the case of `CN(C(=O)Nc1ccc(F)c(F)c1)C1CCCc2[nH]c(=O)c3c(c21)CCOC3` (single isomer, unassigned) [Compound 63, 3-(3,4-Difluorophenyl)-1-methyl-1-(5-oxo-1,4,5,6,7,8,9,10-octahydro-2H-pyrano[3,4-c]quinolin-10-yl)urea], the concentration for a half-maximal effect (EC50) worked out at 3100 nM.

The experiment is the same for the next values; noted with them: read-out: DE-19bDNA EC50; inhibition of rcDNA formation in HepDE19 cells (HepG2 derived), Tet-free medium, 7 day incubation, Quantigene 2.0 bDNA readout, top concentration 25 μM.
With `CN(C(=O)Nc1ccccc1)C1COCc2[nH]c(=O)c3cc(F)c(F)cc3c21` (single isomer, unassigned) [Compound 102, 1-(8,9-Difluoro-6-oxo-1,4,5,6-tetrahydro-2H-pyrano[3,4-c]isoquinolin-1-yl)-1-methyl-3-phenylurea], the EC50 amounted to 30 nM.
